Measurements reported in patent US20170198027A1 (priority 2012, published 2017).

Test system: 6-OHDA lesioned rat
Experiment: 6-OHDA lesioned rat model of Parkinson's disease (cylinder, adjusting step, rotation, TH staining)
Type: in vivo
Conditions: prophylactic, high and moderate groups vs vehicle, trend
Protocol: 1. Animals: male SO rats were purchased from Shanghai Laboratory Animal Center (SLAC). They were housed under 21-23 OC, with 12 h light-dark life cycle. Food and water were given ad libitum.
2. 6uOHDA lesion: Rats were anesthetized with 60 mg/kg sodium pentobarbital. They were stereotaxic injected with total dose of 20 pg of fresh prepared 6-OHDA (dissolved in saline containing 0.05% ascorbic acid, calculated as free base) into tvvo sites of the left striatum, using the following coordinates (in mm relative to Bregma): AP+i 0.0, L −2.5, DV −5.0; AP −0.4, L −4.0, DV −5.5. The injection rate was i pi/min and a total of 2 iJI was injected at each site. The needle was left in place for 3 min before retracting.
3. Cylinder test: Rats were placed in a transparent cylinder (22 cm in diameter and 30 cm height). Animal would rear and support its body with one or both of its forelimbs. […] Each behavioral was expressed as percent use of left, right or both limb(s) relative to the total number.
4. […] The number of adjusting steps of each left and right forelimbs on both directions was recorded individually. […]
6. […] Number of positively stained cells in the left and right sides of SN in each section was counted to make the summation. The ratio of left/right was calculated.
7. Statistic analysis: Data were expressed as mean±SEI\tl and analyzed with ANOVA followed by Tukey test. […]

human Apoiipoprotein AI, injection [APOA1]
neuron count, damage caused by 6-OHDA lesion: reduce the damage caused by 6-OHDA lesion
